According to patent US9593123B2, “Triazolo[4,5-D]pyrimidine derivatives” (Hoffmann-La Roche Inc., priority 2013, dated 2017):

How the values were obtained:
[1] = target: human CB2 receptor (Homo sapiens (Human), UniProt P34972); assay: cAMP assay, CHO cells expressing human CB2 receptors; format: cell-based; settings: functional cAMP assay, read-out: CB2 hcAMP EC50
Procedure: (§1) CHO cells expressing human CB1 or CB2 receptors are seeded 17-24 hours prior to the experiment 50.000 cells per well in a black 96 well plate with flat clear bottom (Corning Costar #3904) in DMEM (Invitrogen No. 31331), 1×HT supplement, with 10% fetal calf serum and incubated at 5% CO2 and 37° C. in a humidified incubator. The growth medium was exchanged with Krebs Ringer Bicarbonate buffer with 1 mM IBMX and incubated at 30° C. for 30 min. Compounds were added to a final assay volume of 100 μl and incubated for 30 min at 30° C. Using the cAMP-Nano-TRF detection kit the assay (Roche Diagnostics) was stopped by the addition of 50 μl lysis reagent (Tris, NaCl, 1.5% Triton X100, 2.5% NP40, 10% NaN3) and 50 μl detection solutions (20 μM mAb Alexa700-cAMP 1:1, and 48 μM Ruthenium-2-AHA-cAMP) and shaken for 2 h at room temperature. The time-resolved energy transfer is measured by a TRF reader (Evotec Technologies GmbH), equipped with a ND:YAG laser as excitation source. The plate is measured twice with the excitation at 355 nm and at the emission with a delay of 100 ns and a gate of 100 ns, total exposure time 10 s at 730 (bandwidth 30 nm) or 645 nm (bandwidth 75 nm), respectively. The FRET signal is calculated as follows: FRET=T730-Alexa730-P(T645-B645) with P=Ru730-B730/Ru645-B645, where T730 is the test well measured at 730 nM, T645 is the test well measured at 645 nm, B730 and B645 are the buffer controls at 730 nm and 645 nm, respectively. cAMP content is determined from the function of a standard curve spanning from 10 μM to 0.13 nM cAMP.
(§2) EC50 values were determined using Activity Base analysis (ID Business Solution, Limited). The EC50 values for a wide range of cannabinoid agonists generated from this assay were in agreement with the values published in the scientific literature.

[2] = target: human CB1 receptor (Homo sapiens (Human), UniProt P21554); assay: cAMP assay, CHO cells expressing human CB1 receptors; format: cell-based; settings: functional cAMP assay, read-out: CB1 hcAMP EC50
Sequence of human CB1 receptor (P21554 whole entry): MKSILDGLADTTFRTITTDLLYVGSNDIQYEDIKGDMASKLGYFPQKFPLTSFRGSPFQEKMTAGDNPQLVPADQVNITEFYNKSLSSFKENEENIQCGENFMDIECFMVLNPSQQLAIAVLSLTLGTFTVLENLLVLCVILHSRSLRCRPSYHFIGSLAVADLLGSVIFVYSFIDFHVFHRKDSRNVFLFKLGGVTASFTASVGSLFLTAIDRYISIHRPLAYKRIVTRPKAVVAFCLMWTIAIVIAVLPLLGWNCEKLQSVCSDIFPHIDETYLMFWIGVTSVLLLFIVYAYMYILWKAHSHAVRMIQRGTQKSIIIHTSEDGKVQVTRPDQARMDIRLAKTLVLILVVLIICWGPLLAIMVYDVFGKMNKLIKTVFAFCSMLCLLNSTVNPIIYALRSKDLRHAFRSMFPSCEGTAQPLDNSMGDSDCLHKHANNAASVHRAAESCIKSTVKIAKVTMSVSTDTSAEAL
Procedure: as §1, §2

Sequence of human CB2 receptor (P34972 whole entry): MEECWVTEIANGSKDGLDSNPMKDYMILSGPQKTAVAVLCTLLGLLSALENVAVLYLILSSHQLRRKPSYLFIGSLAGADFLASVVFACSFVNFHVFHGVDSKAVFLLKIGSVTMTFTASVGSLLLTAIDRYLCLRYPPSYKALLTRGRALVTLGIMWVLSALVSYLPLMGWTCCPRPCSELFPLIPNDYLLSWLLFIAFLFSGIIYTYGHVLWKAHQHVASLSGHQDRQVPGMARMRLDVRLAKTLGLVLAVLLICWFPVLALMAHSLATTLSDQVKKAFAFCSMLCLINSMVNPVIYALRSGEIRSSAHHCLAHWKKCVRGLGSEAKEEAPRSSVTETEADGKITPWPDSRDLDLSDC

## CC(C)(C)COc1nc(N2CCC(F)(F)C2)c2nnn(Cc3ccccc3Cl)c2n1 [Example 52, 3-[(2-Chlorophenyl)methyl]-7-(3,3-difluoropyrrolidin-1-yl)-5-(2,2-dimethylpropoxy) triazolo[4,5-d]pyrimidine]
[1]
  EC50: 0.8 nM
[2]
  EC50: > 10 µM

## CC(F)(F)COc1nc(N2CCC(F)(F)C2)c2nnn(Cc3ccccc3Cl)c2n1 [Example 53, 3-[(2-Chlorophenyl)methyl]-5-(2,2-difluoropropoxy)-7-(3,3-difluoropyrrolidin-1-yl)triazolo[4,5-d]pyrimidine]
[1]
  EC50: 5.5 nM
[2]
  EC50: > 10 µM

## CC(C)COc1nc(N2CCC(F)(F)C2)c2nnn(Cc3ccccc3Cl)c2n1 [Example 54, 3-[(2-Chlorophenyl)methyl]-7-(3,3-difluoropyrrolidin-1-yl)-5-(2-methylpropoxy) triazolo[4,5-d]pyrimidine]
[1]
  EC50: 1.2 nM
[2]
  EC50: > 10 µM

## CC(C)Oc1nc(N2CCC(F)(F)C2)c2nnn(Cc3ccccc3Cl)c2n1 [Example 55, 3-[(2-Chlorophenyl)methyl]-7-(3,3-difluoropyrrolidin-1-yl)-5-propan-2-yloxytriazolo [4,5-d]pyrimidine]
[1]
  EC50: 1.2 nM
[2]
  EC50: > 10 µM

## C#CCOc1nc(N2CCC(F)(F)C2)c2nnn(Cc3ccccc3Cl)c2n1 [Example 56, 3-[(2-Chlorophenyl)methyl]-7-(3,3-difluoropyrrolidin-1-yl)-5-prop-2-ynoxytriazolo [4,5-d]pyrimidine]
[1]
  EC50: 11 nM
[2]
  EC50: > 10 µM

## COCC(C)Oc1nc(N2CCC(F)(F)C2)c2nnn(Cc3ccccc3Cl)c2n1 (stereo not shown) [Example 57, 3-[(2-Chlorophenyl)methyl]-7-(3,3-difluoropyrrolidin-1-yl)-5-(1-methoxypropan-2-yloxy)triazolo[4,5-d]pyrimidine]
[1]
  EC50: 8.8 nM
[2]
  EC50: > 10 µM

## CC(C)(O)COc1nc(N2CCC(F)(F)C2)c2nnn(Cc3ccccc3Cl)c2n1 [Example 58, 1-[3-[(2-Chlorophenyl)methyl]-7-(3,3-difluoropyrrolidin-1-yl)triazolo[4,5-d]pyrimidin-5-yl]oxy-2-methylpropan-2-ol]
[1]
  EC50: 15.7 nM
[2]
  EC50: > 10 µM

## CCCOc1nc(N2CCC(F)(F)C2)c2nnn(Cc3ccccc3Cl)c2n1 [Example 59, 3-[(2-Chlorophenyl)methyl]-7-(3,3-difluoropyrrolidin-1-yl)-5-propoxytriazolo[4,5-d]pyrimidine]
[1]
  EC50: 0.9 nM
[2]
  EC50: > 10 µM

## O[C@H]1CCN(c2nc(OCC(F)(F)F)nc3c2nnn3Cc2ccccc2Cl)C1 [Example 60, (3S)-1-[3-[(2-Chlorophenyl)methyl]-5-(2,2,2-trifluoroethoxy)triazolo[4,5-d]pyrimidin-7-yl]pyrrolidin-3-ol]
[1]
  EC50: 0.8 nM
[2]
  EC50: > 10 µM

## O[C@H]1CCN(c2nc(OCC(F)(F)F)nc3c2nnn3Cc2ccccc2C(F)(F)F)C1 [Example 61, (3S)-1-[5-(2,2,2-Trifluoroethoxy)-3-[[2-(trifluoromethyl)phenyl]methyl]triazolo[4,5-d]pyrimidin-7-yl]pyrrolidin-3-ol]
[1]
  EC50: 7.5 nM
[2]
  EC50: > 10 µM

## CC(C)Oc1nc(N2CC[C@H](O)C2)c2nnn(Cc3ccccc3Cl)c2n1 [Example 62, (3S)-1-[3-[(2-Chlorophenyl)methyl]-5-propan-2-yloxytriazolo[4,5-d]pyrimidin-7-yl]pyrrolidin-3-ol]
[1]
  EC50: 14.8 nM
[2]
  EC50: > 10 µM

## CC(C)Oc1nc(N2CC[C@H](O)C2)c2nnn(Cc3ccccc3S(C)(=O)=O)c2n1 [Example 63, (3S)-1-[3-[(2-Methylsulfonylphenyl)methyl]-5-propan-2-yloxytriazolo[4,5-d]pyrimidin-7-yl]pyrrolidin-3-ol]
[1]
  EC50: 190 nM
[2]
  EC50: > 10 µM

## CC(C)Oc1nc(N2CC[C@H](O)C2)c2nnn(Cc3nnnn3C)c2n1 [Example 64, (3S)-1-[3-[(1-Methyltetrazol-5-yl)methyl]-5-propan-2-yloxytriazolo[4,5-d]pyrimidin-7-yl]pyrrolidin-3-ol]
[1]
  EC50: 174 nM
[2]
  EC50: > 10 µM

## Cn1nnnc1Cn1nnc2c(N3CCC(F)(F)C3)nc(OCC(C)(C)C)nc21 [Example 65, 7-(3,3-Difluoropyrrolidin-1-yl)-5-(2,2-dimethylpropoxy)-3-[(1-methyltetrazol-5-yl)methyl]triazolo[4,5-d]pyrimidine]
[1]
  EC50: 11.9 nM
[2]
  EC50: > 10 µM

## CC(C)(C)COc1nc(N2CCC(F)(F)C2)c2nnn(Cc3ccccc3S(C)(=O)=O)c2n1 [Example 66, 7-(3,3-Difluoropyrrolidin-1-yl)-5-(2,2-dimethylpropoxy)-3-[(2-methylsulfonylphenyl)methyl]triazolo[4,5-d]pyrimidine]
[1]
  EC50: 3.9 nM
[2]
  EC50: > 10 µM

## Cc1nonc1Cn1nnc2c(N3CCC(F)(F)C3)nc(OCC(C)(C)C)nc21 [Example 67, 3-[[7-(3,3-Difluoropyrrolidin-1-yl)-5-(2,2-dimethylpropoxy)triazolo[4,5-d]pyrimidin-3-yl]methyl]-4-methyl-1,2,5-oxadiazole]
[1]
  EC50: 1.7 nM
[2]
  EC50: > 10 µM

## C[C@H](Oc1nc(N2CCC(F)(F)C2)c2nnn(Cc3ccccc3C(F)(F)F)c2n1)C(F)(F)F [Example 68, 7-(3,3-Difluoropyrrolidin-1-yl)-3-[[2-(trifluoromethyl)phenyl]methyl]-5-[(2S)-1,1,1-trifluoropropan-2-yl]oxytriazolo[4,5-d]pyrimidine]
[1]
  EC50: 0.4 nM
[2]
  EC50: > 10 µM

## C[C@H](Oc1nc(N2CCC(F)(F)C2)c2nnn(Cc3ccccc3S(C)(=O)=O)c2n1)C(F)(F)F [Example 69, 7-(3,3-Difluoropyrrolidin-1-yl)-3-[(2-methylsulfonylphenyl)methyl]-5-[(2S)-1,1,1-trifluoropropan-2-yl]oxytriazolo[4,5-d]pyrimidine]
[1]
  EC50: 3.2 nM
[2]
  EC50: > 10 µM

## C[C@H](Oc1nc(N2CCC(F)(F)C2)c2nnn(Cc3ncccc3Cl)c2n1)C(F)(F)F [Example 70, 3-[(3-Chloropyridin-2-yl)methyl]-7-(3,3-difluoropyrrolidin-1-yl)-5-[(2S)-1,1,1-trifluoropropan-2-yl]oxytriazolo[4,5-d]pyrimidine]
[1]
  EC50: 5.1 nM
[2]
  EC50: > 10 µM

## Cc1nnc(Cn2nnc3c(N4CCC(F)(F)C4)nc(O[C@@H](C)C(F)(F)F)nc32)o1 [Example 71, 2-[[7-(3,3-Difluoropyrrolidin-1-yl)-5-[(2S)-1,1,1-trifluoropropan-2-yl]oxytriazolo[4,5-d]pyrimidin-3-yl]methyl]-5-methyl-1,3,4-oxadiazole]
[1]
  EC50: 214 nM
[2]
  EC50: > 10 µM

## Cc1noc(Cn2nnc3c(N4CCC(F)(F)C4)nc(O[C@@H](C)C(F)(F)F)nc32)n1 [Example 72, 5-[[7-(3,3-Difluoropyrrolidin-1-yl)-5-[(2S)-1,1,1-trifluoropropan-2-yl]oxytriazolo[4,5-d]pyrimidin-3-yl]methyl]-3-methyl-1,2,4-oxadiazole]
[1]
  EC50: 67.4 nM
[2]
  EC50: > 10 µM

## C[C@H](Oc1nc(N2CCC(F)(F)C2)c2nnn(Cc3nnnn3C)c2n1)C(F)(F)F [Example 73, 7-(3,3-Difluoropyrrolidin-1-yl)-3-[(1-methyltetrazol-5-yl)methyl]-5-[(2S)-1,1,1-trifluoropropan-2-yl]oxytriazolo[4,5-d]pyrimidine]
[1]
  EC50: 42.3 nM
[2]
  EC50: > 10 µM

## Cc1nonc1Cn1nnc2c(N3CCC(F)(F)C3)nc(O[C@@H](C)C(F)(F)F)nc21 [Example 74, 3-[[7-(3,3-Difluoropyrrolidin-1-yl)-5-[(2S)-1,1,1-trifluoropropan-2-yl]oxytriazolo[4,5-d]pyrimidin-3-yl]methyl]-4-methyl-1,2,5-oxadiazole]
[1]
  EC50: 1.8 nM
[2]
  EC50: > 10 µM

## C[C@H](Oc1nc(N2CCC(F)(F)C2)c2nnn(CCC(F)(F)F)c2n1)C(F)(F)F [Example 75, 7-(3,3-Difluoropyrrolidin-1-yl)-5-[(2S)-1,1,1-trifluoropropan-2-yl]oxy-3-(3,3,3-trifluoropropyl)triazolo[4,5-d]pyrimidine]
[1]
  EC50: 4.3 nM
[2]
  EC50: > 10 µM

## C[C@H](Oc1nc(N2CCC(F)(F)C2)c2nnn(Cc3nnnn3C3CC3)c2n1)C(F)(F)F [Example 76, 3-[(1-Cyclopropyltetrazol-5-yl)methyl]-7-(3,3-difluoropyrrolidin-1-yl)-5-[(2S)-1,1,1-trifluoropropan-2-yl]oxytriazolo[4,5-d]pyrimidine]
[1]
  EC50: 17.7 nM
[2]
  EC50: > 10 µM

## CC(=O)N[C@H]1CCN(c2nc(OCC(C)(C)C)nc3c2nnn3Cc2ccccc2Cl)C1 [Example 77, N-[(3S)-1-[3-[(2-Chlorophenyl)methyl]-5-(2,2-dimethylpropoxy)triazolo[4,5-d]pyrimidin-7-yl]pyrrolidin-3-yl]acetamide]
[1]
  EC50: 58.2 nM
[2]
  EC50: > 10 µM
